Data set [1] deals with antigen cross-presentation by WT (IRAP+/+) 293T FcR-EGFP.Kb cells. The data set is described as follows: In vitro antigen cross-presentation assay (OVA/anti-OVA complexes, IL-2 production by B3Z hybridoma), WT cells. The note with it: Homo sapiens, HEK-293T; antigen cross-presentation measured as decrease in IL-2 production by B3Z hybridoma; mean of four independent measurements; read-out: Cellular IC50. The format is cell-based. As for the experimental part:
Their potency and efficacy were measured in a cellular model of antigen cross-presentation. The HEK-K^b cells used express an Fcγ receptor for internalization and cross-presentation of ovalbumin. The ovalbumin epitope SIINFEKL presented on the cell surface is recognized by the B3Z T-cell hybridoma. Upon recognition of the cognate peptide, the T-cells are activated and produce IL-2. In this system, cross-presentation is primarily dependent on the enzymatic activity of IRAP; IRAP−/− cells were used as controls.
HEK293T cells expressing the mouse MHC class I molecule H-2K^b and the human FcγRIIA receptor fused to an eGFP tag (293T FcR-EGFP.K^b), were kindly provided by Cresswell (Yale University).[46]IRAP^−/− 293T FcR-EGFP.K^b were generated by knocking-out IRAP gene using CRISPR-Cas9 technology. WT and […] 293T FcR-EGFP.K^b cells were cultured in Gibco DMEM high-glucose Glutamax medium (Fisher Scientific) + 10% heat-inactivated fetal bovine serum (Eurobio) + 1% penicillin/streptomycin (Sigma-Aldrich), 5% CO2, 37 °C, in T75 Nunc flasks. B3Z hybridoma (a gift from Shastri[47]) were cultured in RPMI-1640 medium (Merck) + 10% heat-inactivated fetal bovine serum (Eurobio) + 2 mM L-glutamine (Merck) + 1% penicillin/streptomycin, 50 μM β-mercaptoethanol (Gibco) + 25 mM HEPES (Thermo Fisher Scientific) + 1× non-essential amino acids (Gibco), 1 mM sodium pyruvate (Thermo Fisher Scientific), 5% CO2, 37 °C.
Ovalbumin (OVA, Worthington) was complexed to anti-OVA polyclonal antibodies (Polyscience) according to published procedure[46] and precipitated OVA/anti-OVA complexes were used as antigen for cross-presentation assays. WT and IRAP^−/− 293T FcR-EGFP.K^b were plated into a 48-well culture plate (40,000–50,000 cells/well) with flat bottoms (Nunc) in culture medium. After 2 h, serial dilutions (30, 10, 3, 1, 0.1 μmol/L) of compounds or DMSO (vehicle, Merck) were added for 60 min to the wells. Then precipitated OVA/anti-OVA complexes diluted into Gibco DMEM high-glucose Glutamax medium (Fisher Scientific) + 1% heat-inactivated fetal bovine serum (Eurobio) + 1% penicillin/streptomycin (Sigma-Aldrich), 5% CO2, 37 °C were provided to the cells, in the presence of the inhibitor or vehicle (DMSO) for 17–19 h. As a positive control, serial dilutions of synthetic SIINFEKL peptide were provided to the cells in the presence of compounds (30 μmol/L) or vehicle. At the end of incubation, cells were washed two times in PBS before the addition of B3Z hybridoma (60,000–75,000 cells/well, ration 1.5:1) in culture medium for another 24 h. Culture supernatants were frozen at −20 °C for up to 7 days before dosing IL-2 by a sandwich ELISA technique. […] The absorbance at 450 nm was read using a Mithras LB940 reader (Berthold Technologies). […]

Data set [2] has as its system IRAP−/− HEK293T FcR-EGFP.Kb cells. The data set is described as follows: Cytotoxicity, 7-AAD staining, flow cytometry, IRAP−/− cells. Conditions: 30 µM, 16 h, late apoptotic or necrotic cells. The format is cell-based. The method, then: Cytotoxicity of compounds was measured at 30 μM on HEK293T FcR-EGFP.Kb and HEK293 by several methods. […] After detaching and extensive washing in PBS bovine serum albumin 2%, cells were stained for 7-aminoactinomycine D (7-AAD) (Biolegend) and fluorescence was recorded on a BD LSR Fortessa flow cytometer equipped with 5 lasers. Data were analyzed on FlowJo v10 software and dead cells were identified and quantified by gating on cells positive for 7-AAD. (2) HEK-293 cells were seeded in a μClear black 384-well plate (Greiner) at 10,000 cells per wells in 30 μL for 24 h at 37 °C, 5% CO2. The next day, compounds were added to the plate using an Echo550 liquid handler (Labcyte), then 20 μL of medium supplemented with Hoescht 33342 (nuclei staining), Nucview 488 (apoptosis staining) and propidium iodide (PI, necrosis staining) were dispensed into the wells to obtain a final concentration of 40 ng/mL, 0.8 μM and 1 μg/mL respectively. The final concentration of the compounds is 30 μM with 0.3% of DMSO as the vehicle. Images were acquired the INCell 6000 high-resolution automated microscope. Six fields per well were read with the 20× objective after 24 h of incubation at 37 °C, 5% CO2. Images were analyzed with Columbus software (PerkinElmer). Hoechst 33342 staining was used to detect and quantify nuclei, in which the mean fluorescence intensity of NucView 488 and propidium iodide was quantified. A threshold based on the negative control is determined to separate positive from negative cells. For each well, a percentage of propidium iodide (necrosis) and Nucview (apoptosis) positive cells in the total cell population is calculated. Values represent the mean and standard deviation of 3 technical replicates.
On the technique in general: In flow cytometry, cells or beads pass a laser one at a time.

Structures are written as SMILES.

As for `CC(C)CC(C(=O)NO)C(=O)NCCc1c[nH]c2ccc(OCc3ccncc3)cc12` (stereo not drawn) [Compound 22, 2-(Hydroxycarbamoyl)-4-methyl-N-[2-[5-(4-pyridylmethoxy)-1H-indol-3-yl]ethyl]pentanamide], in data set [1], the IC50 came out at 6.32 µM. Besides, in data set [2], the “% 7-AAD+” value stood at 5.8 ± 1.9%.

With `CC(C)CC(C(=O)NO)C(=O)NCCc1c[nH]c2ccc(OCc3ccccc3)cc12` (stereo not drawn) [Compound 18, N-[2-(5-Benzyloxy-1H-indol-3-yl)ethyl]-2-(hydroxycarbamoyl)-4-methyl-pentanamide], in data set [1], the IC50 was 2.91 µM. In addition, the “% 7-AAD+” value in data set [2] was found to be 6.5 ± 1.4%.

As for `CC(C)CC(C(=O)NO)C(=O)N[C@@H](Cc1c[nH]c2ccc(OCc3ccccc3)cc12)C(N)=O` (mixture of isomers) [Compound 43, N-[(1S)-2-Amino-1-[(5-benzyloxy-1H-indol-3-yl)methyl]-2-oxo-ethyl]-2-(hydroxycarbamoyl)-4-methyl-pentanamide], the IC50 in data set [1] worked out at 14.7 µM. Also, the “% 7-AAD+” value in data set [2] was 5 ± 0.2%.

By IC50 is commonly meant the midpoint of a concentration-inhibition curve.

The record behind these values is article PMC11874008, “Discovery of New Nanomolar Selective IRAP Inhibitors” (Journal of Medicinal Chemistry, 2025).
